Like-named read-outs stand apart in the source and are kept apart here.
Legend:
[1] = tested on: P. berghei ookinete development; conditions: for % inhibition, Replicate A / % inhibition, Replicate B: primary screen at 1 μM
[2] = tested on: 3D7-strain P. falciparum asexual parasites; test: P. falciparum asexual growth inhibition assay (Pf GIA); assay type: cell-based, Plasmodium falciparum; conditions: dose response confirmation; read-out: Pf asexual growth inhibition assays IC50
Procedure, shortened: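 3D7 parasites at 0.25% parasitemia, 2% hematocrit were exposed to compounds in dose response for 72 h at 37°C under 5% CO2, 5% O2. Viability read as parasite LDH activity (nitro blue tetrazolium, A650) after freeze-thaw; inhibition scaled to chloroquine (50 μM) and DMSO controls, mean of three biological replicates.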

HepG2 cells = test: HepG2 cytotoxicity assay; conditions: for Pb ODA (this manuscript) HepG2 cytoxicity: HepG2 cytotoxicity listed with the Pb ODA data set (this manuscript); for IC50: read-out: HepG2 cytotoxicity assay IC50, dose response confirmation
Procedure, shortened: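 Cells are plated at 2,500 per well on compound-treated plates in MEM containing 10% fetal bovine serum and 1% NEAA, then incubated 48 h at 37°C.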

[3] = read-out: Pb ODA (this manuscript) IC50, P. berghei ookinete development assay, this manuscript
[4] = read-out: Pb Ookinete development assay IC50, dose response confirmation
[5] = unified HepG2 value across the three screens
[6] = read-out: Pb ODA IC50, this manuscript
[7] = HepG2 values of the three screens unified

Structure (SMILES)	Is compound selective in assay? Pb ODA active? [1]	% inhibition, Replicate A [1] [%]	% inhibition, Replicate B [1] [%]	IC50 [1, 3] [nM]	IC50 [1, 4] [nM]	IC50 [2] [nM]	Pb ODA (this manuscript) HepG2 cytoxicity (HepG2 cells) [µM]	IC50 (HepG2 cells) [nM]	Is compound selective in assay? Pb ODA active? ([1]; 1: YES, 0: NO)	Unified cytotox (HepG2 cells; [5]) [µM]	IC50 [1, 6] [nM]	HepG2 cytoxicity (Pb ODA, this manuscript) (HepG2 cells) [µM]	Unified cytotox (HepG2 cells; [7]) [µM]
COc1ccc(Nc2ncc(C#N)c(Nc3ccccc3C(N)=O)n2)cc1N1CCN(C)CC1.Cl [TCMDC-134117]	1 (key: 1: YES; 0: NO)	92.85	98.42	25.5	26	63	8.32	8320					
O=C(NCC1CC1)C1CCN(C(c2ccc(Cl)cc2)c2ccc(Cl)cc2)CC1 [TCMDC-135522]		38.16	71.31		1590	305		100000	1 (1: YES)	100.00			
COc1cccc(CNCC(C)(C)c2nc(-c3ccc(Cl)c(O)c3)c(-c3ccncc3)[nH]2)c1.Cl [TCMDC-140687]	0 (key: 1: YES; 0: NO)	13.26	51.15	3740	3740	759	5.01	5010					
CCN(CC)c1ccccc1CNC(=O)c1cc(Cl)c(N)cc1OC [TCMDC-131416]		54.83	54.70		1320	< 0.2		41700	1 (1: YES)	41.69	1320		
Cc1cccc2nc(-c3ccc(-c4ccc(CN5CC(C)OC(C)C5)cc4)cc3)[nH]c12.O=C(O)C(F)(F)F (stereo not shown) [TCMDC-133823]	1 (key: 1: YES; 0: NO)	122.68	88.91	430	434	168	15.14	15100					
Cc1nc(C)c(-c2ccc(Sc3ccc(Cl)cc3)cc2)c(O)c1Br [TCMDC-137404]	1 (key: 1: YES; 0: NO)	89.90	109.40	80	77	53	100.00	100000					
COc1ccc2ncc(C)c(CCN3CCC(NCc4ccc5c(n4)NC(=O)CS5)CC3)c2c1.Cl [TCMDC-134648]		66.89	104.06		2550	872		34700	1 (1: YES)		2550	34.67	34.67
Cc1[nH]c(C)c(C2CCC(c3ccc(Cl)cc3)CC2)c(=O)c1Cl (stereo not shown) [TCMDC-137423]		93.67	102.07		75	44		2240	1 (1: YES)	2.24	75.5		
CC(=O)Nc1ccc(Nc2c3ccccc3nc3ccccc23)cc1 [TCMDC-124356]		62.81	63.52		598	1090		14100	1 (1: YES)	14.13	600		
Cc1[nH]c(C)c(-c2ccc(-c3ccc(Cl)cc3)cc2)c(=O)c1Cl [TCMDC-137416]	1 (key: 1: YES; 0: NO)	59.25	97.22	2430	2430	378	57.54	57500					
O=C(c1ccco1)N1CCN(c2ccc([N+](=O)[O-])c(NC3CC3)c2)CC1 [TCMDC-125397]		106.00	90.44		1160	< 0.2		2040	0 (0: NO)	2.04	1160		
CCCCCCCc1c(C)[nH]c2ccc(F)cc2c1=O [TCMDC-137269]	1 (key: 1: YES; 0: NO)	57.79	78.85	320	319	208	100.00	100000					
CC(C#N)Cc1ccc(-c2cnc(N)c3cc(-c4ccnc(N)n4)ccc23)cc1 (stereo not shown) [TCMDC-134547]		69.67	52.16		849	1370		5750	0 (0: NO)	5.75	850		
O=C(Nc1ccc(OC2CCN(Cc3ccc(F)cc3)C2)c(Cl)c1)c1cccs1.O=C(O)C(F)(F)F (stereo not shown) [TCMDC-133757]		48.09	57.60		1910	187		25100	1 (1: YES)	25.12	1910		
COc1ccc2ncc(F)c(CCN3CCC(NCc4ccc5c(c4)CCO5)CC3)c2n1.Cl [TCMDC-135491]	0 (key: 1: YES; 0: NO)	14.40	53.74	3390	3390	879	31.62	31600					
Cc1[nH]c(C)c(-c2ccc(Oc3ccccc3)cc2)c(=O)c1Br [TCMDC-137410]		89.72	108.12		34	14		34700	1 (1: YES)		33.8	34.67	34.67
CNCCN(C)C(=O)Oc1c(Br)c(C)nc(C)c1-c1ccc(Oc2ccc(OC(F)(F)F)cc2)cc1.Cl [TCMDC-137377]	0 (key: 1: YES; 0: NO)	132.58	124.21	1480	1480	71	8.32	8320					
Cc1[nH]c(C)c(-c2ccc(Oc3ccc(Cl)cc3)cc2)c(=O)c1C [TCMDC-137378]		87.44	100.49		636	< 0.2		8610	1 (1: YES)		640	8.61	8.61
CN(Cc1cccc(F)c1)C1CCN(c2cc(NC(=O)c3ccc(F)cc3)ccn2)CC1.O=C(O)C(F)(F)F [TCMDC-135018]		54.82	42.75		6060	31		140	0 (0: NO)	0.14	6060		

— paper PMC6753678, “Fueling Open Innovation for Malaria Transmission-Blocking Drugs: Hundreds of Molecules Targeting Early Parasite Mosquito Stages” (Frontiers in Microbiology, 2019)
